Laboratory results from PubChem BioAssay (NCI).
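In this assay, cells in 96-well plates receive the compound at five concentrations for 48 hours. Endpoints are linearly interpolated between the surrounding concentrations. GI50 = concentration required for 50% inhibition of growth. TGI: concentration producing complete growth inhibition.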

Columns and labels:
Experiment in all cases: growth of human tumour cells (NCI), 48 h
[1] = test system: 786-0 renal
[2] = test system: CCRF-CEM leukemia
[3] = test system: EKVX NSCLC
[4] = test system: HL-60(TB) leukemia
[5] = test system: KM12 colon
[6] = test system: NCI-H226 lung
[7] = test system: NCI-H460 lung
[8] = test system: PC-3 prostate
[9] = test system: RXF 393 renal
[10] = test system: SW-620 colon

Row | SMILES | GI50 [1] [µM] | TGI [1] [µM] | GI50 [2] [µM] | TGI [2] [µM] | GI50 [3] [µM] | TGI [3] [µM] | GI50 [4] [µM] | TGI [4] [µM] | GI50 [5] [µM] | TGI [5] [µM] | GI50 [6] [µM] | TGI [6] [µM] | GI50 [7] [µM] | TGI [7] [µM] | GI50 [8] [µM] | TGI [8] [µM] | GI50 [9] [µM] | TGI [9] [µM] | GI50 [10] [µM] | TGI [10] [µM]
1 | Cc1cc2nc3cc(C)c(N)cc3[n+](-c3ccccc3)c2cc1N | 6.26 | > 100 | 11.2 | > 100 | 2.48 | > 100 | 4.92 | > 100 | 2.07 | 17.6 | 6.23 | > 69.4 | 3.57 | 19.7 | 3.63 | > 100 | 17.5 | > 100 | 5.62 | > 45.2
2 | CN1CCN(Cc2ccc(NC(=O)c3cncc(C#Cc4cncc5nccnc45)c3)cc2C(F)(F)F)CC1 | 5.31 | 12.5 | 3.98 | 35 | > 50 | > 50 | 0.342 | 4.76 | 0.136 | 6.88 | 0.628 | > 50 | 2.21 | 8.46 | 4.73 | 32.2 | 2.21 | 7.47 | 0.878 | 7.7
3 | C[C@]12CC[C@H]3[C@@H](C[C@@H]4SC(Nc5ccccc5)=N[C@@]45CC(O)CC[C@]35C)[C@@H]1CCC2O (stereo not given in full) | 1.22 | 3.3 | 1.6 | 27.1 | 2.75 | 9.26 | 2.02 | 6.87 | 1.68 | 3.12 | 2.4 | 5.57 | 1.95 | 4.04 | 2.37 | 5.85 | 0.798 | 2.28 | 2.27 | 5.36
